Data from patent US6825209B2, “Compounds having unique CB1 receptor binding selectivity and methods for their production and use” (Research Triangle Institute, priority 2002, dated 2004).
Read-outs that look alike come from different tables or passages of the source.

Tests used:
[1] = biological target: T1, CB1 receptor (Rattus norvegicus, UniProt P20272); assay: Radioligand displacement in whole rat brain (CB1) membrane preparations; type: binding
T1 construct: Whole rat brains or dissected regions from live CD rats; tissue Charles River or Pel-Freez Biologicals; host or cells: whole rat brain (CD rats), P2 membrane
T1 sequence (P20272 whole entry): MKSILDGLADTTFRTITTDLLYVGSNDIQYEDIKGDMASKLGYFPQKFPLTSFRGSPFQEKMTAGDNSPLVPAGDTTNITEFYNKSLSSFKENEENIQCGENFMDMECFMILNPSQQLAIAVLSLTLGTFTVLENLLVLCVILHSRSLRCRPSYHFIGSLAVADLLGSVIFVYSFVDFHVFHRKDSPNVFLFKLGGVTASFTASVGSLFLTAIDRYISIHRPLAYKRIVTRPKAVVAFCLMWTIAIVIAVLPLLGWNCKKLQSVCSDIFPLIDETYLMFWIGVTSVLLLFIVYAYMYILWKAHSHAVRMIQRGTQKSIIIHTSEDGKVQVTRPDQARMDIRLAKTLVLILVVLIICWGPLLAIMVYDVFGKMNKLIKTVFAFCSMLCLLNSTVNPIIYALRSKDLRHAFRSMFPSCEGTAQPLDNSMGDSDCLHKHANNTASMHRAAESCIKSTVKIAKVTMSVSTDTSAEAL
Summary of the method: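 Washed P2 membranes from whole rat brain (ca. 0.2 mg/mL) in 50 mM Tris.HCl, 1 mM EDTA, 3 mM MgCl2, pH 7.4 were incubated with radioligand and compound for 1 h at 30 °C, then filtered. IC50 values came from one- or two-site nonlinear fits and were converted to Ki by Cheng-Prusoff. Duplicates were run across 3–6 experiments.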

[2] = biological target: T2, human CB1 receptor (Homo sapiens, UniProt P21554); assay: Radioligand displacement in human CB1 receptor-transfected cells (HEK-293); type: binding
T2 construct: expressed in transfected cells; host or cells: HEK-293
T2 sequence (P21554 whole entry): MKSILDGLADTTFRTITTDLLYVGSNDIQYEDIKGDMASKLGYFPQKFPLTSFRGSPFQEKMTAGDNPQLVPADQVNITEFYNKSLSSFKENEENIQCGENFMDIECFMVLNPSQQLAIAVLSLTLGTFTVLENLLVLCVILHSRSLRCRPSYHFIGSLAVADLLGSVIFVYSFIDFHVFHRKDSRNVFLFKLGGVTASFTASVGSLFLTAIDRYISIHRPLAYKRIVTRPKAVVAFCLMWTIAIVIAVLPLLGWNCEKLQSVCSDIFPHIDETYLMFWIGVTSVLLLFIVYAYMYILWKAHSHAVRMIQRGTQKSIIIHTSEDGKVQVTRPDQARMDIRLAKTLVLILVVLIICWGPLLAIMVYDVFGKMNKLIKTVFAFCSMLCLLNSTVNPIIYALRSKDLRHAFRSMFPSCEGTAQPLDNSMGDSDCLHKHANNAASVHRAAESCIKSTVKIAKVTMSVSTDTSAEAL
Summary of the method: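 Radioligand displacement was run on HEK-293 cells expressing human CB1, with incubation and separation as for rat brain membranes. IC50 values came from one- or two-site nonlinear regression and were converted to Ki by Cheng-Prusoff.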

[3] = biological target: T3, human CB2 receptor (Homo sapiens, UniProt P34972); assay: Displacement of 3H-CP55,940 in human CB2 receptor-transfected cells (CHO-K1); type: binding; settings: radioligand 3H-CP55940, Tables 6 and 7
T3 construct: expressed in transfected cells; host or cells: CHO-K1
T3 sequence (P34972 whole entry): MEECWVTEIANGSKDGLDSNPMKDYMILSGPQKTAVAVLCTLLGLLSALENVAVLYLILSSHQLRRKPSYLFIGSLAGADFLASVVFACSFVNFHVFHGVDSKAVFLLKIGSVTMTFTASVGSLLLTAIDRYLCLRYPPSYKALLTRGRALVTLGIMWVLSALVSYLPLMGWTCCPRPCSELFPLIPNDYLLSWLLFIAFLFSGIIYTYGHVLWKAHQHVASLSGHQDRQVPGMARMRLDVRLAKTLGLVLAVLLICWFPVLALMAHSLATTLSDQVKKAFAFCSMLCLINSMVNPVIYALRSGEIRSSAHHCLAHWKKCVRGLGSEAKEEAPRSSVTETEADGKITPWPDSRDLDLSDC
Experimental: Human CB2 receptor affinity. The relative selectivity of the analogs for CB1 versus CB2 receptors varied modestly regardless of the structural modifications examined to date.
Methods—binding assay in transfected cell lines. The methods used for performing binding assays in transfected cells expressing human CB1 or CB2 receptors are those used above. The CB1 receptor involved a HEK-293 expression system whereas the CB2 receptor was expressed in CHO-K1 cells. […] The incubations and separations were then performed as described above for rat brain membrane preparations.
Data analysis. Saturation and displacement data were analyzed by unweighted nonlinear regression of receptor binding data. For displacement studies, curve-fitting and IC50 calculation were done with GraphPad Prism (GraphPad Software, Inc., San Diego, Calif.), which fits the data to one and two-site models and compares the two fits statistically. A similar approach was used for the analysis of isotherm data for calculation of Kd's. A two-site fit was accepted only if it was statistically significant (p<0.05) and the following results were not observed:
IC50 values were then converted to Ki values by reported methods (Cheng and Prusoff, 1973). The statistical evaluation of curve-fitting data allowed for a non-arbitrary conclusion based on the displacement data.

[4] = biological target: T4, G-protein-linked cannabinoid receptors (Rattus norvegicus, UniProt P20272); assay: GTP-γ-[35S] binding in whole rat brain; type: biochemical; settings: for Emax: read-out: Emax, GTP-γ-[35S] in Whole Rat Brain
T4 construct: tissue Charles River or Pel-Freez Biologicals; host or cells: whole rat brain crude membrane homogenate
T4 sequence (P20272 whole entry): as the sequence (P20272 whole entry) above
Text: Cannabinoid receptor-mediated alteration in GTP-γ-[^35S] binding.
Introduction. The purpose of this assay was to characterize the functional activity of lead compounds identified by the radioligand competition binding assays described above. Data from the GTP-γ-[^35S] binding assay was used to determine if a compound was an agonist, antagonist or inverse agonist at G-protein-linked cannabinoid receptors. Agonist binding to a G-protein-linked receptor results in an increased affinity of the G-protein α-subunit for GTP relative to GDP. Eventually, an active αGTP complex forms to complete the stimulus-effector coupling. The α-subunit has intrinsic GTPase activity which generates a free α-subunit which can recombine with the β- and γ-subunits readying the G-protein for another signal transduction cycle. In the current assay, GTP-γ-[^35S] cannot be hydrolyzed by the α-subunit. Thus, the amount of bound GTP-γ-[^35S] is a marker for G-protein activation. In this assay, an agonist increases basal GTP-γ-[^35S] binding, an inverse agonist decreases basal binding and basal binding would be unaffected by an antagonist.
Experimental Design. The specific binding of GTP-γ-[^35S], in the absence of test compound, was termed “basal” activity. Test compounds were characterized as agonist, antagonist, or inverse agonist based on their effect on basal activity. […] The concentrations spanned two orders of magnitude because affinity may not be related to efficacy. […] Effects of the test compounds are reported as the percent change from basal. More thorough dose-response analysis may be run to determine, for example, if a compound is a full or partial agonist.
Methods. […] In a final volume of 0.5 mL, each assay tube contained: 0.02 mg crude membrane homogenate (0.1 mL), 200 μM GDP (0.05 mL; to reduce basal G-protein activity), 0.1 nM GTP-γ-[^35S] (0.05 mL) and several concentrations of test compound (0.05 mL) or an equivalent volume of vehicle (used for determination of total binding). Nonspecific binding was determined in the presence of 100 μM unlabeled GTP-γ-S (0.05 mL). Duplicate samples were incubated for 1 h at 30° C. Since this assay is amenable for use with high throughput screening methods, the binding assays were run using a 96-well plate format. Specific binding was calculated as total binding-nonspecific binding.

[5] = read-out: Ki, displacement of 3H-CP55940, whole rat brain membranes, radioligand 3H-CP55940, Tables 1 and 2
[6] = read-out: Ki, displacement of 3H-SR141716A, whole rat brain membranes, radioligand 3H-SR141716A, Tables 1 and 2
[7] = whole rat brain membranes, radioligand 3H-CP55940, Tables 1 and 2
[8] = whole rat brain membranes, radioligand 3H-SR141716A, Tables 1 and 2
[9] = read-out: Ki, displacement of 3H-CP55940, human CB2 transfected cells
[10] = whole rat brain membranes, effects reported as percent change from basal
[11] = whole rat brain membranes, inverse agonist/antagonist activity, read-out: EC50, GTP-γ-[35S] in Whole Rat Brain
[12] = Ki, displacement of 3H-CP55940, whole rat brain membranes, radioligand 3H-CP55940, Tables 1 and 2
[13] = Ki, displacement of 3H-SR141716A, whole rat brain membranes, radioligand 3H-SR141716A, Tables 1 and 2
[14] = Ki, displacement of 3H-CP55940, human CB2 transfected cells

CCCNC(=O)c1nn(-c2ccc(Cl)cc2Cl)c(-c2ccc(Cl)cc2)c1C [MF9725-55C]
Ki [1, 5]: 0.0299 µM | Ki [1, 6]: 0.0236 µM | Max. Disp. %, 3H-CP55940 [1, 7]: 97.4% | Max. Disp. %, 3H-SR141716A [1, 8]: 100% | Ki ([2]; displacement of 3H-CP55940, human CB1 transfected cells, radioligand 3H-CP55940, Table 3): 0.0337 µM | Ki ([2]; displacement of 3H-SR141716A, human CB1 transfected cells, radioligand 3H-SR141716A, Table 3): 0.006 µM | Max. Disp. %, 3H-CP55940 ([2]; human CB1 transfected cells, radioligand 3H-CP55940, Table 3): 81.9% | Max. Disp. %, 3H-SR141716A ([2]; human CB1 transfected cells, radioligand 3H-SR141716A, Table 3): 93.4% | Max. Disp. %, 3H-WIN55212-2 ([2]; human CB1 transfected cells, radioligand 3H-WIN55212-2, Table 3): 73.3% | Max. Disp. %, 3H-CP55940 ([3]; human CB2 transfected cells): 68.3% | Ki [3, 9]: 2.96 µM | Emax [4, 10]: -35.7% | EC50 [4, 11]: 11.1 µM

Cc1c(C(=O)NC(C)CO)nn(-c2ccc(Cl)cc2Cl)c1-c1ccc(Cl)cc1 (single isomer, unassigned) [MF9725-105-38]
Ki [1, 12]: 0.117 µM | Ki [1, 13]: 0.123 µM | Max. Disp. %, 3H-SR141716A [1, 8]: 96.8% | Ki [3, 14]: 5.9 µM | Max. Disp. %, 3H-CP55940 ([3]; human CB2 transfected cells): 47.5% | Emax, GTP-γ-[35S] in Whole Rat Brain [4, 10]: −83.8 | EC50 [4, 11]: 294 µM

CCCCCCCCNC(=O)c1nn(-c2ccc(Cl)cc2Cl)c(-c2ccc(Cl)cc2)c1C [MF9879-164-28]
Ki [1, 12]: 0.135 µM | Ki [1, 13]: 0.0374 µM | Ki ([1]; Ki, displacement of 3H-WIN55212-2, whole rat brain membranes, radioligand 3H-WIN55212-2, Tables 1 and 2): 0.0362 µM | Max. Disp. %, 3H-CP55940 [1, 7]: 80.2% | Max. Disp. %, 3H-SR141716A [1, 8]: 75.2% | Max. Disp. %, 3H-WIN55212-2 ([1]; whole rat brain membranes, radioligand 3H-WIN55212-2, Tables 1 and 2): 68.4% | Max. Disp. %, 3H-CP55940 [2]: 70.6% | Max. Disp. %, 3H-SR141716A [2]: 67.8% | Max. Disp. %, 3H-WIN55212-2 [2]: 35.2% | Ki ([2]; displacement of 3H-CP55940): 0.288 µM | Ki ([2]; displacement of 3H-SR141716A): 0.0447 µM | Ki ([2]; displacement of 3H-WIN55212-2): 0.267 µM | Ki [3, 14]: 98.4 µM | Max. Disp. %, 3H-CP55940 ([3]; human CB2 transfected cells): 45.3% | EC50 [4]: ≥ 677 µM | Emax [4]: -21.3%

CCCCCCCn1nc(C(=O)NN2CCCCC2)c(C)c1-c1ccc(Cl)cc1 [MF10278-20-15]
Emax, GTP-γ-[35S] in Whole Rat Brain [4, 10]: −85.7 | EC50 [4, 11]: 156 µM

Cc1c(C(=O)NN)nn(-c2ccc(Cl)cc2Cl)c1-c1ccc(Cl)cc1 [MF9879-34-8]
Ki [1, 5]: 0.374 µM | Ki [1, 6]: 0.602 µM | Max. Disp. %, 3H-CP55940 [1, 7]: 68.4% | Max. Disp. %, 3H-SR141716A [1, 8]: 85.9% | Max. Disp. %, 3H-CP55940 ([3]; human CB2 transfected cells): 80.8% | Ki [3, 9]: 12.1 µM | Emax [4, 10]: -71.7% | EC50 ([4]; whole rat brain membranes, value above highest concentration tested (footnote), read-out: EC50, GTP-γ-[35S] in Whole Rat Brain, value is above highest concentration on displacement curve): ≥ 419 µM

Cc1c(C(=O)NCCCCO)nn(-c2ccc(Cl)cc2Cl)c1-c1ccc(Cl)cc1 [MF9725-95-31]
Ki [1, 5]: 0.154 µM | Max. Disp. %, 3H-CP55940 [1, 7]: 88.7% | Max. Disp. %, 3H-SR141716A [1, 8]: 97.6% | Max. Disp. %, 3H-CP55940 ([3]; human CB2 transfected cells): 54.3% | Ki [3, 9]: 5.72 µM | Emax [4, 10]: -79.5% | EC50 [4, 11]: 304 µM

Cc1c(C(=O)NC(C)CO)nn(-c2ccc(Cl)cc2Cl)c1-c1ccc(Cl)cc1 (single isomer, unassigned) [MF9725-106-39]
Ki [1, 13]: 0.0998 µM | Ki [1, 5]: 0.117 µM | Max. Disp. %, 3H-CP55940 [1, 7]: 89.7% | Max. Disp. %, 3H-SR141716A [1, 8]: 100% | Ki [3, 14]: 1.77 µM | Max. Disp. %, 3H-CP55940 ([3]; human CB2 transfected cells): 52.1% | Emax, GTP-γ-[35S] in Whole Rat Brain [4, 10]: −83.0 | EC50 [4, 11]: 292 µM

Cc1c(C(=O)NN2CCCCC2)nn(C2CCCCC2)c1-c1ccc(Cl)cc1 [MF9879-117-24]
Emax, GTP-γ-[35S] in Whole Rat Brain [4, 10]: −71.7 | EC50 [4, 11]: 108 µM

CCCCCCn1nc(C(=O)NN2CCCCC2)c(C)c1-c1ccc(Cl)cc1 [MF10278-22-16]
Emax, GTP-γ-[35S] in Whole Rat Brain [4, 10]: −71.5 | EC50 [4, 11]: 74.7 µM

SR144528 [reference compound]
Max. Disp. %, 3H-CP55940 [1, 7]: 84.7% | Max. Disp. %, 3H-SR141716A [1, 8]: 68.6% | Max. Disp. %, 3H-CP55940 ([1]; whole rat brain, 3H-CP55940, Table 4, parallel synthesis analogs, n = 1): 84.7% | Max. Disp. %, 3H-SR141716A ([1]; whole rat brain, 3H-SR141716A, Table 4, parallel synthesis analogs, n = 1): 68.6% | Max. Disp. %, 3H-CP55940 ([3]; human CB2 transfected cells): 88.4% | Emax, GTP-γ-[35S] in Whole Rat Brain [4, 10]: −27.7

Cc1c(C(=O)NN2CCCCC2)nn(-c2ccccc2)c1-c1ccc(Cl)cc1 [MF9879-64-23]
Emax, GTP-γ-[35S] in Whole Rat Brain [4, 10]: −47.2 | EC50 [4, 11]: 361 µM

Cc1c(C(=O)NCCCO)nn(-c2ccc(Cl)cc2Cl)c1-c1ccc(Cl)cc1 [MF9725-94-31]
Ki [1, 5]: 0.16 µM | Ki [1, 6]: 0.156 µM | Max. Disp. %, 3H-CP55940 [1, 7]: 86.6% | Max. Disp. %, 3H-SR141716A [1, 8]: 100% | Max. Disp. %, 3H-CP55940 ([3]; human CB2 transfected cells): 43.1% | Ki [3, 9]: 1.25 µM | Emax [4, 10]: -83.3% | EC50 [4, 11]: 241 µM
